Target: T1, NADPH oxidase (Rattus norvegicus, UniProt Q9WV87)
T1 construct: 12 500 208Fsrc3 cells (100 μl) received the stated concentrations of Cu SOD and 120 μM EUK-8; endogenous in cells; host or cells: 208Fsrc3 transformed rat fibroblasts
T1 sequence (Q9WV87 1-563): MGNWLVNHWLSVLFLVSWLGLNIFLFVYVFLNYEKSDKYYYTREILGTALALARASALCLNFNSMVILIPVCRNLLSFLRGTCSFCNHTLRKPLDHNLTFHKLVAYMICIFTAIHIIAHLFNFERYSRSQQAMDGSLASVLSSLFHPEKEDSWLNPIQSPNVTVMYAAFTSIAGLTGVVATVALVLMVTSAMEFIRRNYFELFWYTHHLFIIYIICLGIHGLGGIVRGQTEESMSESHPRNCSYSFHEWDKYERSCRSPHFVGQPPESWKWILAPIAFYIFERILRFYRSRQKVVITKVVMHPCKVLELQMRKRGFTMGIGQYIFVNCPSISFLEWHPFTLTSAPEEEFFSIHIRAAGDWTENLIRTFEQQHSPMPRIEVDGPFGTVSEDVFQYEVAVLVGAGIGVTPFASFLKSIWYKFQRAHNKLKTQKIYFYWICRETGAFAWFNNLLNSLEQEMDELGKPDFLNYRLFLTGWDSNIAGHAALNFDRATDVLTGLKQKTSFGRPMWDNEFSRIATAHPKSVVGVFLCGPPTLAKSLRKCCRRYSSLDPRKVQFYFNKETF
T1 sequence (Q62737 1-192 partner): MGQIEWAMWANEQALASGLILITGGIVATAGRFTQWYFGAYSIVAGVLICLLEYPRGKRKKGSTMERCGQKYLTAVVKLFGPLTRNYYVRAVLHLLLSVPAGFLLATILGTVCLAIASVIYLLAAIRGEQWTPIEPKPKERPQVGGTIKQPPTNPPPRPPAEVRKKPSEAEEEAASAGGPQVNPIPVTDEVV
Experiment: superoxide anion concentration after inhibition of NADPH oxidase (Cu SOD bell curve shift)
Assay type: cell-based
Settings: 208Fsrc3, 120 μM EUK-8, 5 hours
Method: 12 500 208Fsrc3 cells (100 μl) received the stated concentrations of Cu SOD and 120 μM EUK-8. In addition the stated concentrations of the NADPH oxidase inhibitor AEBSF (4-(2-Aminoethyl)-benzenesulfonyl fluoride) were added. Control preparations remained free of AEBSF. After 5 hours the percentages of apoptotic cells were determined in duplicate preparations.

NCCc1ccc(S(=O)(=O)F)cc1 [AEBSF, 4-(2-Aminoethyl)-benzenesulfonyl fluoride]
reduction in superoxide anion concentration on doubling of the inhibitor concentration: fourfold

— patent publication US20160220542A1, “SYNERGISTIC ACTIVITY OF MODULATORS OF THE NO METABOLISM AND OF NADPH OXIDASE IN THE SENSITISATION OF TUMOR CELLS” (Universitaetsklinikum Freiburg, priority 2010, published 2016)
